Measurements as given in patent publication US20120058989A1, “ANTIBACTERIAL FLUOROQUINOLONE ANALOGS” (Achaogen, Inc., priority 2008, published 2012).

Tests used:
Experiment in all cases: MIC, CLSI broth microdilution
Assay type in all cases: cell-based
[1] = test system: A. baumannii AABA1065 (Fluoroquinolone-susceptible)
Method in brief: (§1)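 MICs were read after 20 hours at 35° C in ambient air, with a final inoculum of 5×10^5 CFU/mL from saline-suspended overnight colonies. Serial two-fold dilutions in Mueller Hinton Broth followed the CLSI reference method (M7-A7), with QC strains E. coli ATCC 25922, P. aeruginosa ATCC 27853 and S. aureus ATCC 29213.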

[2] = test system: P. aeruginosa APAE001 (Fluoroquinolone-susceptible, ATCC27853)
Method in brief: as §1

[3] = test system: P. aeruginosa APAE002 (Fluoroquinolone susceptible); settings: Table 3
Method in brief: as §1

[4] = test system: S. pneumoniae ASPN1027 (Fluoroquinolone-resistant)
Method in brief: as §1

[5] = test system: S. pneumoniae ASPN1018 (Fluoroquinolone-resistant); settings: Table 3
Method in brief: as §1

[6] = test system: E. coli AECO086 (Fluoroquinolone-resistant); settings: Table 3
Method in brief: as §1

[7] = test system: S. pneumoniae ASPN002 (Fluoroquinolone-susceptible, ATCC10813); settings: Table 3
Method in brief: as §1

[8] = test system: S. pneumoniae ASPN001 (Fluoroquinolone-susceptible, ATCC49619)
Method in brief: as §1

[9] = test system: E. coli AECO002 (Fluoroquinolone susceptible); settings: Table 3
Method in brief: as §1

[10] = test system: S. aureus ASAU001 (Fluoroquinolone-susceptible, ATCC29213)
Method in brief: as §1

[11] = test system: P. aeruginosa APAE054 (Fluoroquinolone-resistant)
Method in brief: as §1

[12] = test system: S. aureus ASAU1031 (Fluoroquinolone-resistant)
Method in brief: as §1

[13] = test system: A. baumannii AABA1020 (Fluoroquinolone-resistant); settings: Table 3
Method in brief: as §1

[14] = test system: S. aureus ASAU002 (Fluoroquinolone-susceptible, ATCC33591 (MRSA)); settings: Table 3
Method in brief: as §1

[15] = test system: E. coli AECO066 (Fluoroquinolone-resistant)
Method in brief: as §1

[16] = test system: S. aureus ASAU1033 (Fluoroquinolone-resistant); settings: Table 3
Method in brief: as §1

[17] = test system: E. coli AECO001 (Fluoroquinolone susceptible, ATCC25922)
Method in brief: as §1

[18] = test system: A. baumannii AABA1009 (Fluoroquinolone-resistant); settings: Table 2
Method in brief: as §1

N[C@@H]1C[C@@H]2CCCc3c(c(F)cc4c(=O)c(C(=O)O)cn(C5CC5)c34)N2C1.O=C(O)C(F)(F)F [7E/49, (7aS,9R)-9-Amino-4-cyclopropyl-12-fluoro-1-oxo-4,5,6,7,7a,8,9,10-octahydro-1H-pyrrolo[1′,2′:1,7]-azepino[2,3-h]quinoline-2-carboxylic acid trifluoroacetate]
MIC AABA 1065 ([1]; Table 2): C (MIC's of greater than 8.0 μg/mL = C)
MIC AABA 1065 ([1]; Table 3): D (MIC's of greater than 8.0 μg/mL = D)
MIC APAE 001 ([2]; Table 2): C (MIC's of greater than 8.0 μg/mL = C)
MIC APAE 001 ([2]; Table 3): D (MIC's of greater than 8.0 μg/mL = D)
MIC APAE002 [3]: D (MIC's of greater than 8.0 μg/mL = D)
MIC ASPN 1027 ([4]; Table 2): C (MIC's of greater than 8.0 μg/mL = C)
MIC ASPN 1027 ([4]; Table 3): D (MIC's of greater than 8.0 μg/mL = D)
MIC ASPN1018 [5]: C (MIC's of 2.0 μg/mL to 8.0 μg/mL = C)
MIC AECO086 [6]: D (MIC's of greater than 8.0 μg/mL = D)
MIC ASPN002 [7]: D (MIC's of greater than 8.0 μg/mL = D)
MIC ASPN 001 ([8]; Table 2): C (MIC's of greater than 8.0 μg/mL = C)
MIC ASPN 001 ([8]; Table 3): D (MIC's of greater than 8.0 μg/mL = D)
MIC AECO002 [9]: D (MIC's of greater than 8.0 μg/mL = D)
MIC ASAU 001 ([10]; Table 2): B (MIC's of greater than 1.0 μg/mL to 8.0 μg/mL = B)
MIC ASAU 001 ([10]; Table 3): C (MIC's of 2.0 μg/mL to 8.0 μg/mL = C)
MIC APAE 054 ([11]; Table 2): C (MIC's of greater than 8.0 μg/mL = C)
MIC APAE 054 ([11]; Table 3): D (MIC's of greater than 8.0 μg/mL = D)
MIC ASAU 1031 ([12]; Table 2): C (MIC's of greater than 8.0 μg/mL = C)
MIC ASAU 1031 ([12]; Table 3): D (MIC's of greater than 8.0 μg/mL = D)
MIC AABA1020 [13]: D (MIC's of greater than 8.0 μg/mL = D)
MIC ASAU002 [14]: C (MIC's of 2.0 μg/mL to 8.0 μg/mL = C)
MIC AECO 066 ([15]; Table 2): C (MIC's of greater than 8.0 μg/mL = C)
MIC AECO 066 ([15]; Table 3): D (MIC's of greater than 8.0 μg/mL = D)
MIC ASAU1033 [16]: D (MIC's of greater than 8.0 μg/mL = D)
MIC AECO 001 ([17]; Table 2, 35° C., 20 hours): C (MIC's of greater than 8.0 μg/mL = C)
MIC AECO 001 ([17]; Table 3): D (MIC's of greater than 8.0 μg/mL = D)
MIC AABA 1009 [18]: C (MIC's of greater than 8.0 μg/mL = C)

NC1C[C@@H]2CC=Cc3c(c(F)cc4c(=O)c(C(=O)O)cn(C5CC5)c34)N2C1.O=C(O)C(F)(F)F (stereo partly drawn) [7E/50, (7aS,9)-9-Amino-4-cyclopropyl-12-fluoro-1-oxo-4,7,7a,8,9,10-hexahydro-1H-pyrrolo[1′,2′:1,7]-azepino[2,3-h]quinoline-2-carboxylic acid trifluoroacetate]
MIC AABA 1065 ([1]; Table 2): C (MIC's of greater than 8.0 μg/mL = C)
MIC AABA 1065 ([1]; Table 3): D (MIC's of greater than 8.0 μg/mL = D)
MIC APAE 001 ([2]; Table 2): C (MIC's of greater than 8.0 μg/mL = C)
MIC APAE 001 ([2]; Table 3): D (MIC's of greater than 8.0 μg/mL = D)
MIC APAE002 [3]: D (MIC's of greater than 8.0 μg/mL = D)
MIC ASPN 1027 ([4]; Table 2): B (MIC's of greater than 1.0 μg/mL to 8.0 μg/mL = B)
MIC ASPN 1027 ([4]; Table 3): C (MIC's of 2.0 μg/mL to 8.0 μg/mL = C)
MIC ASPN1018 [5]: C (MIC's of 2.0 μg/mL to 8.0 μg/mL = C)
MIC AECO086 [6]: D (MIC's of greater than 8.0 μg/mL = D)
MIC ASPN002 [7]: C (MIC's of 2.0 μg/mL to 8.0 μg/mL = C)
MIC ASPN 001 ([8]; Table 2): B (MIC's of greater than 1.0 μg/mL to 8.0 μg/mL = B)
MIC ASPN 001 ([8]; Table 3): C (MIC's of 2.0 μg/mL to 8.0 μg/mL = C)
MIC AECO002 [9]: D (MIC's of greater than 8.0 μg/mL = D)
MIC ASAU 001 ([10]; Table 2): C (MIC's of greater than 8.0 μg/mL = C)
MIC ASAU 001 ([10]; Table 3): D (MIC's of greater than 8.0 μg/mL = D)
MIC APAE 054 ([11]; Table 2): C (MIC's of greater than 8.0 μg/mL = C)
MIC APAE 054 ([11]; Table 3): D (MIC's of greater than 8.0 μg/mL = D)
MIC ASAU 1031 ([12]; Table 2): C (MIC's of greater than 8.0 μg/mL = C)
MIC ASAU 1031 ([12]; Table 3): D (MIC's of greater than 8.0 μg/mL = D)
MIC AABA1020 [13]: D (MIC's of greater than 8.0 μg/mL = D)
MIC ASAU002 [14]: C (MIC's of 2.0 μg/mL to 8.0 μg/mL = C)
MIC AECO 066 ([15]; Table 2): C (MIC's of greater than 8.0 μg/mL = C)
MIC AECO 066 ([15]; Table 3): D (MIC's of greater than 8.0 μg/mL = D)
MIC ASAU1033 [16]: D (MIC's of greater than 8.0 μg/mL = D)
MIC AECO 001 ([17]; Table 2, 35° C., 20 hours): B (MIC's of greater than 1.0 μg/mL to 8.0 μg/mL = B)
MIC AECO 001 ([17]; Table 3): C (MIC's of 2.0 μg/mL to 8.0 μg/mL = C)
MIC AABA 1009 [18]: C (MIC's of greater than 8.0 μg/mL = C)

N[C@@H]1CCN2c3c(F)cc4c(=O)c(C(=O)O)cn(C5CC5)c4c3C=CC[C@H]12.O=C(O)C(F)(F)F [16/16, (7aR,8R)-8-Amino-4-cyclopropyl-12-fluoro-1-oxo-4,7,7a,8,9,10-hexahydro-1H-pyrrolo[1′,2′:1,7]azepino[2,3-h]quinoline-2-carboxylic acid trifluoroacetate]
MIC AABA 1065 ([1]; Table 2): A (MIC's of 1.0 μg/mL or less = A)
MIC AABA 1065 ([1]; Table 3): A (MIC's of less than 1.0 = A)
MIC APAE 001 ([2]; Table 2): A (MIC's of 1.0 μg/mL or less = A)
MIC APAE 001 ([2]; Table 3): A (MIC's of less than 1.0 = A)
MIC APAE002 [3]: A (MIC's of less than 1.0 = A)
MIC ASPN 1027 ([4]; Table 2): B (MIC's of greater than 1.0 μg/mL to 8.0 μg/mL = B)
MIC ASPN 1027 ([4]; Table 3): A (MIC's of less than 1.0 = A)
MIC ASPN1018 [5]: A (MIC's of less than 1.0 = A)
MIC AECO086 [6]: B (MIC's of 1.0 μg/mL to 2.0 μg/mL = B)
MIC ASPN002 [7]: A (MIC's of less than 1.0 = A)
MIC ASPN 001 ([8]; Table 2): A (MIC's of 1.0 μg/mL or less = A)
MIC ASPN 001 ([8]; Table 3): A (MIC's of less than 1.0 = A)
MIC AECO002 [9]: A (MIC's of less than 1.0 = A)
MIC ASAU 001 ([10]; Table 2): A (MIC's of 1.0 μg/mL or less = A)
MIC ASAU 001 ([10]; Table 3): A (MIC's of less than 1.0 = A)
MIC APAE 054 ([11]; Table 2): C (MIC's of greater than 8.0 μg/mL = C)
MIC APAE 054 ([11]; Table 3): D (MIC's of greater than 8.0 μg/mL = D)
MIC ASAU 1031 ([12]; Table 2): A (MIC's of 1.0 μg/mL or less = A)
MIC ASAU 1031 ([12]; Table 3): A (MIC's of less than 1.0 = A)
MIC AABA1020 [13]: C (MIC's of 2.0 μg/mL to 8.0 μg/mL = C)
MIC ASAU002 [14]: A (MIC's of less than 1.0 = A)
MIC AECO 066 ([15]; Table 2): B (MIC's of greater than 1.0 μg/mL to 8.0 μg/mL = B)
MIC AECO 066 ([15]; Table 3): C (MIC's of 2.0 μg/mL to 8.0 μg/mL = C)
MIC ASAU1033 [16]: B (MIC's of 1.0 μg/mL to 2.0 μg/mL = B)
MIC AECO 001 ([17]; Table 2, 35° C., 20 hours): A (MIC's of 1.0 μg/mL or less = A)
MIC AECO 001 ([17]; Table 3): A (MIC's of less than 1.0 = A)
MIC AABA 1009 [18]: B (MIC's of greater than 1.0 μg/mL to 8.0 μg/mL = B)
